Assays:
Assay type in all cases: in vivo, rat
activated caspase-3 = assay: Activated caspase-3 profiles at the periphery of the stroke; conditions: standardized area on the periphery of the stroke
Experimental: A photothrombotic stroke model was used to generate unilateral ischemic lesions centered in the forelimb motor area of the cortex. The infarct area was determined using stereotaxic coordinates and was verified by histological analysis. Lesions were restricted to one hemisphere and included the caudal forelimb area of the primary motor cortex along with varying amounts of adjacent cortex (FIG. 10A and FIGS. 15 and 16). Lesion size varied among animals in each group, but there were no systematic between-group differences (lesion size [in pixels]=85.4±8.2 d [mean±S.E.M] for the saline-treated group and 81.1±8.6 for the inosine-treated group: difference not significant). […] This conclusion is further supported by the absence of any difference between inosine- and saline-treated cases in the number and size of profiles expressing activated caspase-3, as quantified focally in a standardized area on the periphery of the stroke (Caspase-3 profiles in saline-treated group=11.8±1.1, and in inosine treated group=11.9±1.5).

C1q, C3, metallothionein = assay: Immunohistochemistry for C1q, C3 and metallothionein in layer 5 of the uninjured forelimb motor cortex; conditions: 7 days after stroke
Experimental: To investigate whether some of the changes seen in the microarray study translate into differences at the protein level, immunohistochemistry was performed for C1q, C3, and metallothionein (Study VII). […] Immunohistochemistry was used to investigate whether inosine-induced changes found at the mRNA level translate into changes at the protein level. Analyses were carried out in layer 5 of the uninjured forelimb motor cortex 7 days after a stroke was induced in the corresponding region of the contralateral hemisphere. Inosine induced changes in levels of complement proteins C1q (a) and C3 (b) and metallothionine (c).

[1] = system: corticospinal tract (CST) axons; assay: BDA anterograde tracing of CST fibers from the undamaged hemisphere into the denervated side of the spinal cord after stroke
Experimental: All procedures were carried out in accordance with NIH Guidelines with the approval of Children's Hospital Animal Care and Use Committee. Unilateral in-farcts were induced in the sensorimotor cortex of adult Sprague-Dawley rats (275-300 g; Charles River Laboratories, Wilmington, Mass.) using the photothrombotic model of focal ischemia (Markgraf et al., 1993). Briefly, rats were anesthetized with a combination of ketamine (75 mg/kg) and Domitor (medetomidine; 0.5 mg/kg) and a 15 mm skin incision was made at the midline rostral to the posterior suture. A craniotomy was performed over the sensorimotor cortex using a hand-held drill to open a window that spanned medio-laterally between the sagittal sinus and temporal ridge, and rostro-caudally between Bregma +2.5 mm and Bregma −3.5 mm. The photosensitive dye Rose Bengal was injected into the femoral vein, and a fiber-optic cable connected to a xenon light source was centered over the craniotomy, focusing light directly on the exposed region of the brain for 30 minutes. A green filter fitted over the bulb restricted illumination to ˜525 nm, a wavelength that excites Rose Bengal and causes it to release free radical species. The subsequent damage to endothelial cells in exposed portions of the cortical vasculature causes platelet aggregation, resulting in severe focal ischemia. […] Control animals were generated using the same surgical procedure but without photo-activation of Rose Bengal. Animals with strokes were randomly assigned to receive a continuous infusion of either saline (0.9%, Baxter Scientific; n=12), inosine (50 mM in saline, Sigma-Aldrich Co., St. Louis, Mo.; n=12), NEP1-40 (500 μM in 2.5% DMSO/97.5% saline; n=12), or inosine +NEP1-40 (n=12) into the cisterna magna using osmotic minipumps (0.25 μl/h, Alzet model 2004, Durect Corpora-tion, Palo Alto, Calif.). In addition to these, a separate set of animals with the same 4 groups (n=12 in each) was created for a long-term behavioral study. Because CSF drug concentrations presumably require several hours to achieve steady-state levels when delivered via slow-releasing osmotic pumps, all animals received a 25 μl intraventricular bolus of the appropriate agent prior to pump placement. Pumps were tucked between the shoulder blades and infusion needles were secured onto the cranium with a silicon-based glue. The incision was closed with silk sutures and cleaned with betadine and ethanol pads. For 72 hours following surgery, animals received twice-daily, subcu-taneous injections of Buprenex (buprenorphine; Reckitt Benkiser Pharmaceuticals Inc., Richmond, Va.) for pain management.
In groups treated for four weeks after stroke, animals were re-anesthetized, the infusion needle and pump were removed, and a craniotomy was performed over the uninjured SMA. The anterograde tracer bioti-nylated dextran amine (BDA: Molecular Probes: 10% wt/vol in sterile saline) was injected stereotaxically at depths of 0.5, 1.0, and 2.0 mm below the cortical surface at 18 standardized points distributed over the sensorimotor cortex (70 nl per injection; Nano-ject, Drummond Scientific, Broomall, Pa.). Two weeks later, animals were anesthetized and perfused transcardially with 0.9% saline followed by 4% paraformaldehyde. The brain and spinal cord were dissected and post-fixed overnight in 4% paraformaldehyde, followed by 10% and 30% sucrose solutions over the next few days. Tissue was em-bedded in OCT Tissue Tek Medium (Sakura Finetek USA Inc., CA) and frozen on dry ice. Forty micron free-floating sections were cut in the coronal plane on a Frigo-Jung 8500 cryostat. Free-floating spinal cord sections were used to detect crossing fibers using avidin-biotin complex conjugated to horseradish peroxidase (Vectastain ABC Kit; Vector Laboratories), followed by Vector SG (Vector Laboratories) as a chromagen. Sections were mounted on pre-coated slides and lightly counterstained with eosin to distinguish grey and white matter boundaries. […]

[2] = system: sensorimotor cortex infarct; assay: Lesion size / stroke volume after photothrombotic focal ischemia; conditions: 4 weeks treatment after focal ischemia
Experimental: All procedures were carried out in accordance with NIH Guidelines with the approval of Children's Hospital Animal Care and Use Committee. Unilateral in-farcts were induced in the sensorimotor cortex of adult Sprague-Dawley rats (275-300 g; Charles River Laboratories, Wilmington, Mass.) using the photothrombotic model of focal ischemia (Markgraf et al., 1993). Briefly, rats were anesthetized with a combination of ketamine (75 mg/kg) and Domitor (medetomidine; 0.5 mg/kg) and a 15 mm skin incision was made at the midline rostral to the posterior suture. A craniotomy was performed over the sensorimotor cortex using a hand-held drill to open a window that spanned medio-laterally between the sagittal sinus and temporal ridge, and rostro-caudally between Bregma +2.5 mm and Bregma −3.5 mm. […]
Sections through the telencephalon were cut at 10 μm, mounted on slides, and stained with Crystal Violet to determine the extent of the lesions. […] The area of the injured and uninjured hemisphere of each section was determined using NIH Image-J software. Lesion area was determined by subtracting the area of tissue remaining in the injured hemisphere from that in the uninjured hemisphere in sections spaced 250 μm apart spanning the full rostrocaudal extent of the lesion. […]

[3] = layer 5 of undamaged hemisphere
[4] = layer 5 of undamaged hemisphere, vs saline
[5] = 4 weeks treatment after stroke, vs saline

OC[C@H]1O[C@@H](n2cnc3c(O)ncnc32)[C@H](O)[C@@H]1O [inosine]
Caspase-3 profiles (activated caspase-3): 11.9±1.5 | metallothionine positively staining profiles per field (C1q, C3, metallothionein): 17.9±0.8 | increase of number of metallothionine positively staining profiles per field (C1q, C3, metallothionein; vs saline): 28% | C1q average grain pixel density (C1q, C3, metallothionein; [3]): 5654±894 | C3 average grain pixel density (C1q, C3, metallothionein; [3]): 1377±101 | increase of C1q staining intensity (C1q, C3, metallothionein; [4]): 75% | increase of C3 staining intensity (C1q, C3, metallothionein; [4]): 37% | number of synaptic bouton-like structures ([1]; 0.25 mm^2 box spanning Laminae VI and VII, vs saline): tripled | increase in number of labeled fibers ≧40 μm in gray matter on the denervated side [1, 5]: 2.5 fold | increase in number of lengthy axons (>200 μm) in gray matter on the denervated side [1, 5]: 3.5 fold | number of BDA-labeled CST fibers, inosine- vs saline-treated ([1]; CST axons labeled two weeks after stroke): No significant differences | increase in number of CST fibers re-crossing the midline to enter the denervated dorsal funiculus, relative to controls ([1]; inosine 50 mM infusion 4 weeks after stroke): three-fold | number of CST fibers in the denervated dorsal funiculus relative to NEP1-40 alone ([1]; inosine combined with NEP1-40): did not increase | number of axons >40 μm in the cervical gray matter relative to NEP1-40 alone ([1]; inosine combined with NEP1-40): strongly increased | number of axons >200 μm in the cervical gray matter relative to NEP1-40 alone ([1]; inosine combined with NEP1-40): strongly increased | lesion size (mean±S.E.M) [2]: 81.1±8.6 pixels

— patent US8912144B2, “Method for treating stroke via administration of NEP1-40 and inosine” (Children's Medical Center Corporation, priority 2003, dated 2014)
